In paper PMC7062757 (2020):

Assays:
[1] = tested on: M2 x3 array (5 nt) (Mango II x3, M2x3) (RNA, aptamer) GGCACGUACGAAGGAGAGGAGAGGAAGAGGAGAGUACGUGCUUUUUGGACAUGCCGAAGGAGAGGAGAGGAAGAGGAGAGGCAUGUCCUUUUUGGGUGCAUCGAAGGAGAGGAGAGGAAGAGGAGAGAUGCACCC; test: fluorescence titration, Hill fit; details: 140 mM KCl, 1 mM MgCl2; 10 mM sodium phosphate, pH 7.2, 22 °C; 40 nM RNA; apparent; per site
[2] = tested on: Mango II (RNA, aptamer) GGCACGUACGAAGGAGAGGAGAGGAAGAGGAGAGUACGUGC; test: fluorescence titration, Hill fit; details: 140 mM KCl, 1 mM MgCl2; 10 mM sodium phosphate, pH 7.2, 22 °C; 40 nM RNA; apparent; per site

Kd,app [1]: 80 ± 6 nM | Kd,app [2]: 30 ± 4 nM
Compound: CN1C=CC(=Cc2sc3ccccc3[n+]2CC(=O)NCCOCCOCCOCCNC(=O)CCCC[C@@H]2SC[C@@H]3NC(=O)N[C@@H]32)c2ccccc21
